Laboratory results reported in patent publication US10363251B2, “(+)-morphinans as antagonists of toll-like receptor 9 and therapeutic uses thereof” (Mallinckrodt LLC, priority 2009, dated 2019).
Entries after “also recorded” stand apart in the source; their conditions may differ. Read-outs that look alike come from different tables or passages of the source.

Key:
TLR9 = molecular target: T1, TLR9 (Homo sapiens, UniProt Q9NR96); assay: TLR9 screening of (+)-morphinan library, SEAP reporter in HEK293 cells expressing TLR9; assay type: cell-based; details: activator ODN2006; for OD 650 nm (mean ± sd): control (no activator) 0.14, activator 1.42 OD
T1 construct: expressed in transfected cells; host or cells: HEK293
T1 sequence (Q9NR96 26-1032): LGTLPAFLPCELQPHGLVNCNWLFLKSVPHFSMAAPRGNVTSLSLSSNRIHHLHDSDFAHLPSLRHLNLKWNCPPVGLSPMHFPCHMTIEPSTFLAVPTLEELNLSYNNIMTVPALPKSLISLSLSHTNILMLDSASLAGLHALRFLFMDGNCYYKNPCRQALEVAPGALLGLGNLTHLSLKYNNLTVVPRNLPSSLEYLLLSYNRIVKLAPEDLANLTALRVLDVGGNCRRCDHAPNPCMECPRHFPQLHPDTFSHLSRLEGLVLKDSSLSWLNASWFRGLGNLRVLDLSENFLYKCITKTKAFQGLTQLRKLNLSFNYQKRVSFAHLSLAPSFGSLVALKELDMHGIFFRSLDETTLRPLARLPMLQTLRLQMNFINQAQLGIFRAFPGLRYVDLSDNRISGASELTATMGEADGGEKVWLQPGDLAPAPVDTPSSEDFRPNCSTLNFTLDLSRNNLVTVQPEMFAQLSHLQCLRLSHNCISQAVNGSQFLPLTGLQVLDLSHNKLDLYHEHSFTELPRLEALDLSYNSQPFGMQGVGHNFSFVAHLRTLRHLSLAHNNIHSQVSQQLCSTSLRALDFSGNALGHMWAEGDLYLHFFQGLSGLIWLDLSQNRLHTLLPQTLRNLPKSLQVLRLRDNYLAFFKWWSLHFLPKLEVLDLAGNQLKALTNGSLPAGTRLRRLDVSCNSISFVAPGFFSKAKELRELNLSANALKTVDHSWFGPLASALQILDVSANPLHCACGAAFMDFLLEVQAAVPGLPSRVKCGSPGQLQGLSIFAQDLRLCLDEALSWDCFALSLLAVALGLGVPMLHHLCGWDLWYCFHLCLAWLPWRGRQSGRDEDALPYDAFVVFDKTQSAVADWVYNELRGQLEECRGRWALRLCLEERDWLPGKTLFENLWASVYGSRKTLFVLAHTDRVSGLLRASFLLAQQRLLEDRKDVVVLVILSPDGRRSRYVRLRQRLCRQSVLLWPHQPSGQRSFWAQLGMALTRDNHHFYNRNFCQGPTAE
In short: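 HEK293 cells expressing TLR9 with an NF-κB-inducible SEAP reporter were preincubated with compound at 10 μM and 100 nM for 30 min at 37 °C, then stimulated with ODN2006. SEAP was read as OD 650 nm after 16-20 h, in triplicate.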

[1] = tested on: chronic constriction injury (CCI) neuropathic pain model; assay: Reversal of allodynia (von Frey) in CCI rats, 4 days of dosing, Example 4; assay type: in vivo, rat; details: for Animals sleepier/sedated on at least one post dosing occasion / Local observations (swelling, irritation): i.p.; for Reversal of allodynia (von Frey): i.p. once a day for 4 days from day 14, tested 3 hrs after dosing, ultra low to high dose; for Reversal of allodynia (von Frey) / Area under the curve (AUC) analysis of allodynia: vs saline; for Area under the curve (AUC) analysis of allodynia: i.p. once a day for 4 days
Procedure: Allodynia was induced in a group of (male, Sprague-Dawley) rats essentially as described above in Example 3. Prior to surgery, animals were tested to establish their baseline von Frey scores. Any animal with a Log absolute von Frey score lower than 4.65 on either leg was excluded from the study. CCI surgery was performed on the left sciatic nerve as detailed above. On days 4 and 14 post-surgery, the animals were tested using the von Frey test of mechanical allodynia to ensure that allodynia was established.
Beginning at about day 14 post-surgery, the animals were dosed once a day for 4 days. Compounds II-25, II-93, II-62, and III-2 were tested. All drugs were administered intraperitoneally (i.p.). Allodynia was tested prior to and again 3 hrs after each dosing. Drug administration and testing was done blindly. After the 4th day of dosing, the animals were sacrificed, cardiac perfusion was performed, and spinal cords were removed and stored for further analysis.
All data were analyzed using 2-way ANOVA's with Bonferroni's post hoc test compared to saline unless otherwise stated. Area under curve (AUC) was calculated using Graphpad Prism and comparisons were made using 1-way ANOVA with Dunnet's post hoc test.

[2] = tested on: APAP-induced liver toxicity; assay: Acetaminophen (APAP)-induced hepatotoxicity model; assay type: in vivo, mouse; details: APAP 500 mg/Kg ip, 12 hours post-APAP; for Protection from APAP-induced toxicity: test doses and timing per Table 6; for Liver histology scores (necrosis and hemorrhage): vs APAP alone
Procedure: For this, APAP-induced liver toxicity was induced in male C57BL/6 mice aged between 8-10 weeks by a single intraperitoneal (ip) injection of APAP in PBS at a dose of 500 mg/Kg (Imaeda et al. (2009) J. Clin. Invest. 119(2):305-314). The ability of (+)-morphinans to reduce liver toxicity was tested in the following groups:
The (+)-morphinan (or PBS) was either administered as a single subcutaneous (sc) or ip injection concurrent with the APAP injection or one hour prior to the APAP injection.
The mice were sacrificed 12 hours post-APAP treatment. Liver samples were stained with H&E and analyzed for signs of necrosis and hemorrhage. Histology scores were assigned using the standard rating scale. The levels of serum alanine transaminase (ALT) were also measured in each animal using a standard assay.

[3] = HEK293, read-out: % Inhibition (mean), 100 nM
[4] = HEK293, read-out: % Inhibition (mean), 10 μM

SMILES	OD 650 nm (mean ± sd) (TLR9; 100 nM) [OD]	OD 650 nm (mean ± sd) (TLR9; 10 μM) [OD]	inhibition at 0.1 µM (TLR9; [3]) [%]	inhibition at 10 µM (TLR9; [4]) [%]	Reversal of allodynia (von Frey) [1]	further results
COc1ccc2c3c1O[C@@H]1[C@H](O)CC[C@@H]4[C@H](C2)N(CC2CC2)CC[C@]341 [II-25]	1.33 ± 0.07	0.21 ± 0.06	6	85	significant overall effect on the reversal of allodynia bilaterally; also recorded: effective at reversing mechanical allodynia	Animals sleepier/sedated on at least one post dosing occasion ([1]; high dose): 5-6; Area under the curve (AUC) analysis of allodynia [1]: significantly reversed allodynia
C=CCN1CCc2cc(OC)ccc2[C@H]1Cc1ccc(OC)c(O)c1 [III-2]	1.13 ± 0.02	0.42 ± 0.04	–	–	no effect on allodynia at any dose	inhibition at 0.1 µM (TLR9; HEK293, 100 nM, read-out: % Inhibition (mean)): 21%; inhibition at 10 µM (TLR9; HEK293, 10 μM, read-out: % Inhibition (mean)): 71%; Animals sleepier/sedated on at least one post dosing occasion ([1]; low dose): Two; Protection from APAP-induced toxicity [2]: None of compounds II-24, II-93, or III-2 provided any protection; Liver histology scores (necrosis and hemorrhage) [2]: about the same as those only exposed to APAP
CN(C(=O)/C=C/c1ccoc1)[C@H]1CC[C@]2(O)[C@@H]3Cc4ccc(O)c5c4[C@]2(CCN3CC2CC2)[C@@H]1O5 [II-62]	1.34 ± 0.05	0.18 ± 0.01	6	87	did not significantly reverse allodynia at any dose	Time course analysis of allodynia, ipsilateral paw ([1]; Day 4 of dosing): slight reversal of allodynia; Animals sleepier/sedated on at least one post dosing occasion ([1]; high dose): two; Local observations (swelling, irritation) ([1]; high dose): appeared to irritate the rats when it was injected; also recorded: swelling around the site of injection; Area under the curve (AUC) analysis of allodynia [1]: no overall effect of any dose; Animals sleepier/sedated on at least one post dosing occasion ([1]; low dose): one; Animals sleepier/sedated on at least one post dosing occasion ([1]; medium dose): one
C=CCN1CC[C@@]23c4c5ccc(OC)c4OC2C(NCCC)CCC3C1C5 (stereo partly shown) [II-93]	0.12 ± 0.00	0.11 ± 0.01	91	92	significantly reversed allodynia in the ipsilateral paw after the high dose only; also recorded: effective at reversing mechanical allodynia	Animals sleepier/sedated on at least one post dosing occasion ([1]; high dose): 7; Local observations (swelling, irritation) ([1]; high dose): swelling of the ipsilateral paw; Area under the curve (AUC) analysis of allodynia [1]: significant reversal of allodynia in the ipsilateral paw; Animals sleepier/sedated on at least one post dosing occasion ([1]; low dose): one; Animals sleepier/sedated on at least one post dosing occasion ([1]; medium dose): two; Protection from APAP-induced toxicity [2]: None of compounds II-24, II-93, or III-2 provided any protection; Liver histology scores (necrosis and hemorrhage) [2]: about the same as those only exposed to APAP
COc1ccc2c3c1O[C@@H]1C(O)CC[C@]4(O)[C@H](C2)N(CC2CC2)CC[C@@]314 (single isomer, unassigned) [II-53a]	1.22 ± 0.05	1.32 ± 0.13	–	–	–	% Inhibition (mean) (TLR9; 100 nM, 0.1 µM): 14%; % Inhibition (mean) (TLR9; 10 μM): 7%
C=CCN1CC[C@@]23c4c5ccc(OC)c4O[C@@H]2C(=C)CC[C@]3(O)[C@@H]1C5 [II-51]	1.20 ± 0.04	0.84 ± 0.05	16	41	–	–
COc1ccc2c3c1O[C@@H]1C(=O)CC[C@]4(O)[C@H](C2)N(C(=O)c2ccccc2)CC[C@@]314 [II-60]	1.24 ± 0.04	0.17 ± 0.03	13	88	–	–
COC1=CCC2[C@@H]3Cc4ccc(OC)c5c4[C@]2(CCN3CC2CC2)[C@@H]1O5 (stereo partly shown) [II-87]	1.28 ± 0.06	0.45 ± 0.01	–	–	–	% Inhibition (mean) (TLR9; 100 nM, 0.1 µM): 10%; % Inhibition (mean) (TLR9; 10 μM): 69%
COc1ccc2c3c1O[C@@H]1C(NC(C)=O)CC[C@@H]4[C@H](C2)N(C)CC[C@@]314 (stereo partly shown) [II-9]	1.25 ± 0.09	1.00 ± 0.02	12	29	–	–
COc1ccc2c(c1O)[C@@]13CCN(CC4CC4)[C@@H](C2)[C@@]1(O)CC(OC)C(=O)C3 (stereo partly shown) [Compound I-18]	1.40 ± 0.14	1.01 ± 0.06	1	29	–	–
C=C1CC[C@]2(O)[C@@H]3Cc4ccc(OC)c5c4[C@]2(CCN3C)[C@@H]1O5 [II-41]	1.27 ± 0.03	1.02 ± 0.09	11	28	–	–
CCOC(=O)N1CC[C@@]23CC(=O)CCC2C1Cc1c(Br)cc(OC)c(O)c13 (stereo partly shown) [Compound I-11]	1.49 ± 0.04	1.98 ± 0.09	-5	-39	–	–
